We go through one compound from US10220024B2, “Method of inhibiting cancer cell, method for detecting cancer cell, and system for detecting cancer cell” (CANON KABUSHIKI KAISHA, priority 2012, dated 2019).

Like-named read-outs stand apart in the source and are kept apart here.

The test system of assay [1] is K562 ALDH (+) fraction (cancer stem cells). The assay is described as follows: Cancer stem-cell selective inhibitory action against chronic myelocytic leukemia cells, ALDH (+) fraction, CellTiter-Glo. Type of assay: cell-based. The conditions noted are these: Homo sapiens, 24 hours; for activity at 0.12 µg/mL: 0.12 μg/ml; for activity at 0.24 µg/mL: 0.24 μg/ml; for activity at 0.35 µg/mL: 0.35 μg/ml; for activity at 0.47 µg/mL: 0.47 μg/ml; for activity at 0.59 µg/mL: 0.59 μg/ml. On the procedure:
(§1) Human chronic myelocytic leukemia cells, K562, were pre-cultured in RPMI1640 medium containing 10% FBS at 37° C. in a 5% CO2 ambient. Then, a fraction containing 80% or more of cancer stem cells was extracted by use of ALDEFLUOR reagent (manufactured by VERITAS Corporation) and FACSAria flow cytometry (manufactured by Nippon Becton, Dickinson and Company). Subsequently, Compound (5) was added to the medium so as to obtain a final concentration of 10 μg/mL and cultured at 37° C. for 24 hours in a 5% CO2 ambient. The cultured cells were analyzed for viable cell count according to CellTiter-Glo Luminescent Cell Viability Assay (manufactured by Promega KK.). As a reference, the number of cells cultured in a medium containing a 0.1% dimethylsulfoxide solution (hereinafter, simply referred to as DMSO) in place of a medium containing Compound (1), in the aforementioned operation, was used as 0.1. Note that hereinafter, an ALDEFLUOR reagent positive fraction (deemed as cancer stem cells) is represented by ALDH (+), whereas an ALDEFLUOR reagent negative fraction (not deemed as cancer stem cells) is represented by ALDH (−), in some cases.
(§2) The same operation as in Experimental Example 12 was repeated except that Compound (5) in Experimental Example 12 was changed to the compounds shown in Table 4 and final concentrations shown in Table 4 were used and viable cell counts were separately analyzed. Note that the growth rate in Examples herein is a numerical value of the number of cells obtained after culture relative to the number of cells (regarded as 0.1) grown in a medium containing 0.1% DMSO.
(§3) The same operation as in Experimental Example 12 was repeated except that Compound (5) in Experimental Example 12 was changed to Imatinib (manufactured by NOVARTIS), which is a general anticancer drug, and comparative compounds shown in Table 4 and final concentrations shown in Table 4 were used and viable cell counts were separately analyzed.
(§4) The growth suppressive effect of cancer stem cells was evaluated based on the following criteria. Note that the growth rate in Examples herein is a numerical value relative to the number of cells (regarded as 0.1) grown in a medium containing 0.1% DMSO. • A: The value of ALDH (+) is less than 0.5 (growth suppressive effect against cancer stem cells is extremely high) • B: The value of ALDH (+) is 0.5 or more and less than 0.95 (growth suppressive effect against cancer stem cells is high) • C: The value of ALDH (+) is 0.95 or more (no growth suppressive effect against cancer stem cells)
(§5) Furthermore, superiority of cancer stem cells was evaluated by comparing cancer stem cells to cancer cells based on the following criteria. ALDH (+) represents cancer stem cells; whereas ALDH (−) represents general cancer cells. • A: The value of ALDH (+)/ALDH (−) is less than 0.8 (selective inhibitory effect against cancer stem cells is extremely high) • B: The value of ALDH (+)/ALDH (−) is 0.8 or more and less than 0.95 (selective inhibitory effect against cancer stem cells is high) • C: The value of ALDH (+)/ALDH (−) is 0.95 or more (no selective inhibitory effect against cancer stem cells)
A general note: Cellular ATP, detected with luciferase, serves as a proxy for viable cell number.

The test system of assay [2] is K562 ALDH (−) fraction (general cancer cells). The assay is described as follows: Cancer stem-cell selective inhibitory action against chronic myelocytic leukemia cells, ALDH (−) fraction, CellTiter-Glo. The assay is classed as cell-based, Human. On the procedure: as §1, §2, §3, §4, §5
The subject of assay [3] is K562-BFP human chronic myelocytic leukemia cells transplanted to zebra young fish. Description: Cancer metastasis suppressive effect in metastatic foci of cancer cells transplanted to zebra young fish. Type of assay: in vivo. Conditions: metastatic foci (region within 300 to 450 μm from a transplanted tumor). From the text:
From cell strain K562-BFP, which is a strain of human chronic myelocytic leukemia cells having fluorescent protein TagBFP constantly expressed, a fraction (ALDH (+)) containing 80% or more of cancer stem cells was extracted by use of a cancer stem cell marker, ALDEFLUOR reagent (manufactured by VERITAS Corporation) and FACSAria flow cytometry (manufactured by Nippon Becton, Dickinson and Company). The ALDH (+) fraction and a ALDH (−) fraction of general cancer cells were transplanted separately to zebra young fish (MieKomachi lineage, 2 days after fertilization) and the fish were raised in a 32° C. environment. Furthermore, 24 hours after transplantation, Compound (16) was added to breeding water so as to obtain a final concentration of […] and fish were raised for two days in a 32° C. environment. Cells transplanted to the zebra young fish were observed under MZ16F fluorescent stereoscopic microscope (manufactured by Leica Microsystems) and a fluorescent image of the cells after 24 hours was photographed and then fluorescent intensity was quantified.
As a reference, the fluorescent intensity of cells, which were cultured in the same operation method as above in a medium containing a 0.1% DMSO solution in place of Compound (16), was used.
Fluorescent images were photographed in the same manner as in Experimental Example 29 except that Imatinib and Dasatinib were respectively used in place of the compound (16) in Experimental Example 29.
The inhibition rate herein was obtained according to the expression: 100×(1-F1/F0), where the fluorescent intensity of cells when a test substance was added is represented by F1, and the fluorescent intensity of cells when a reference substance (DMSO) was added is represented by F0.
The growth suppressive effect in metastatic foci (region within 300 to 450 μm from a transplanted tumor) of cancer stem cells was evaluated based on the following criteria. • A: Inhibition rate is 70 or more (growth suppressive effect against metastatic foci (region within 300 to 450 μm from a transplanted tumor) of cancer stem cells is extremely high) • B: Inhibition rate is 50 or more and less than 70 (growth suppressive effect against metastatic foci (region within 300 to 450 μm from a transplanted tumor) of cancer stem cells is high) • C: Inhibition rate is less than 50 (growth suppressive effect against metastatic foci (region within 300 to 450 μm from a transplanted tumor) of cancer stem cells is low)

Where [4] appears, read: read-out: Growth suppression evaluated.
Where [5] appears, read: relative to 0.1% DMSO, read-out: ALDH(+) (growth rate).

On to `Cc1ccc(NC(=O)c2ccc(CN3CCN(C)CC3)cc2)cc1Nc1nccc(-c2cccnc2)n1` [Imatinib, reference compound], for which the activity at 0.12 µg/mL in assay [1] (setting [4]) was 50 to 95%; in assay [1] (setting [5]) it was 74%; in assay [2] (Homo sapiens, 0.12 μg/ml, 24 hours, relative to 0.1% DMSO, read-out: ALDH(−) (growth rate)) it was 51%. Moreover, the activity at 0.24 µg/mL is 50 to 95% in assay [1] (setting [4]); 59% in assay [1] (setting [5]); 40% in assay [2] (Homo sapiens, 0.24 μg/ml, 24 hours, relative to 0.1% DMSO, read-out: ALDH(−) (growth rate)). The activity at 0.35 µg/mL in assay [1] (setting [4]) was less than 50%; in assay [1] (setting [5]), 48%; in assay [2] (Homo sapiens, 0.35 μg/ml, 24 hours, relative to 0.1% DMSO, read-out: ALDH(−) (growth rate)), 32%. Besides, the activity at 0.47 µg/mL in assay [1] (setting [4]) was less than 50%; in assay [1] (setting [5]), 36%; in assay [2] (Homo sapiens, 0.47 μg/ml, 24 hours, relative to 0.1% DMSO, read-out: ALDH(−) (growth rate)) it was 22%. In addition, the activity at 0.59 µg/mL is less than 50% in assay [1] (setting [4]); 31% in assay [1] (setting [5]); 11% in assay [2] (Homo sapiens, 0.59 μg/ml, 24 hours, relative to 0.1% DMSO, read-out: ALDH(−) (growth rate)). For the same compound, the “inhibitory effect against general cancer cells, in words” value in assay [2] was “an inhibitory effect against general cancer cells was observed”. Moreover, the “Evaluation (inhibition rate in metastatic foci)” value in assay [3] (0.5 μm in breeding water) is “B (Inhibition rate is 50 or more and less than 70)”. The compound further displayed an Inhibition rate in assay [3] (final concentration of 0.5 μm in breeding water, 100×(1-F1/F0) versus DMSO) of 60.
